Assay results from patent US7973055B2, “Crystalline forms of a biphenyl compound” (Theravance, Inc., priority 2006, dated 2011).

Key:
[1] = molecular target: T1, hM2 receptor (CHO-K1 cells) (Homo sapiens, UniProt P08172); experiment: Blockade of agonist-mediated [35S]GTPγS binding; assay type: biochemical; conditions: CHO-K1 cells expressing hM2; this or a similar assay; read-out: Ki for blockade of oxotremorine-stimulated [35S]GTPγS binding
T1 construct: expressed in transfected cells; host or cells: CHO-K1 cells
T1 sequence (P08172 1-466): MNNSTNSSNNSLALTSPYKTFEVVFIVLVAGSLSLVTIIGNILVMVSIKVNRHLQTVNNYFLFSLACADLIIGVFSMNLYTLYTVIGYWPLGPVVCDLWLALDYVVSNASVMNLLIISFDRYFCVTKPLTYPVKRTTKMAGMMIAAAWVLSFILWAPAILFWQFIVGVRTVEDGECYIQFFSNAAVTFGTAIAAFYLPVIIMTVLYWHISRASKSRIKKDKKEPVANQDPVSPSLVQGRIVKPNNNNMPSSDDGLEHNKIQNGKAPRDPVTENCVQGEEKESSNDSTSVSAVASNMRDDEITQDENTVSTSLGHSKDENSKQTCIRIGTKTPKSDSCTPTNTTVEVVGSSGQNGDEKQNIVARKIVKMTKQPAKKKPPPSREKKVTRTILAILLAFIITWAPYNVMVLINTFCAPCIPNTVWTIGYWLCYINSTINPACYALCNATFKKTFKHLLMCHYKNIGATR
Procedure: In a second functional assay, the functional potency of test compounds can be determined by measuring the ability of the compounds to block oxotremorine-stimulated [^35S]GTPγS binding in CHO-K1 cells expressing the hM2 receptor.
At the time of use, frozen membranes were thawed and then diluted in assay buffer with a final target tissue concentration of 5-10 μg protein per well. The membranes were briefly homogenized using a Polytron PT-2100 tissue disrupter and then added to the assay plates. The EC90 value (effective concentration for 90% maximal response) for stimulation of [^35S]GTPγS binding by the agonist oxotremorine was determined in each experiment.
To determine the ability of a test compound to inhibit oxotremorine-stimulated [^35S]GTPγS binding, the following was added to each well of 96 well plates: 25 μL of assay buffer with [^35S]GTPγS (0.4 nM), 25 μL of oxotremorine (EC90) and GDP (3 μM), 25 μL of diluted test compound and 25 μL CHO cell membranes expressing the hM2 receptor. […] Microscint-20 scintillation liquid (50 μL) was added to each well, and each plate was sealed and radioactivity counted on a topcounter (PerkinElmer). Data were analyzed by nonlinear regression analysis with the GraphPad Prism Software package (GraphPad Software, Inc., San Diego, Calif.) using the non-linear regression, one-site competition equation. […]

hM3 receptor (CHO cells) = molecular target: T2, hM3 receptor (CHO cells) (Homo sapiens, UniProt P20309); experiment: Blockade of agonist-mediated calcium release via FLIPR; assay type: cell-based; conditions: CHO cells stably expressing hM3, FLIPR; this or a similar assay
T2 construct: expressed in transfected cells
Excerpt: Muscarinic receptor subtypes (M1, M3 and M5 receptors), which couple to Gq proteins, activate the phospholipase C (PLC) pathway upon agonist binding to the receptor. As a result, activated PLC hydrolyzes phosphatyl inositol diphosphate (PIP2) to diacylglycerol (DAG) and […] (IP3), which in turn generates calcium release from intracellular stores, i.e., endoplasmic and sarcoplasmic reticulum. The FLIPR (Molecular Devices, Sunnyvale, Calif.) assay capitalizes on this increase in intracellular calcium by using a calcium sensitive dye (Fluo-4AM, Molecular Probes, Eugene, Oreg.) that fluoresces when free calcium binds. This fluorescence event was measured in real time by the FLIPR, which detected the change in fluorescence from a monolayer of cells cloned with human M1 and M3, and chimpanzee M5 receptors. Antagonist potency was determined by the ability of antagonists to inhibit agonist-mediated increases in intracellular calcium.
For FLIPR calcium stimulation assays, CHO cells stably expressing the hM1, hM3 and cM5 receptors were seeded into 96-well FLIPR plates the night before the assay was done. […]
To determine antagonist potency, the dose-dependent stimulation of intracellular Ca^2+ release for oxotremorine was first determined so that antagonist potency can later be measured against oxotremorine stimulation at an EC90 concentration. […]

T2 sequence (P20309 whole entry): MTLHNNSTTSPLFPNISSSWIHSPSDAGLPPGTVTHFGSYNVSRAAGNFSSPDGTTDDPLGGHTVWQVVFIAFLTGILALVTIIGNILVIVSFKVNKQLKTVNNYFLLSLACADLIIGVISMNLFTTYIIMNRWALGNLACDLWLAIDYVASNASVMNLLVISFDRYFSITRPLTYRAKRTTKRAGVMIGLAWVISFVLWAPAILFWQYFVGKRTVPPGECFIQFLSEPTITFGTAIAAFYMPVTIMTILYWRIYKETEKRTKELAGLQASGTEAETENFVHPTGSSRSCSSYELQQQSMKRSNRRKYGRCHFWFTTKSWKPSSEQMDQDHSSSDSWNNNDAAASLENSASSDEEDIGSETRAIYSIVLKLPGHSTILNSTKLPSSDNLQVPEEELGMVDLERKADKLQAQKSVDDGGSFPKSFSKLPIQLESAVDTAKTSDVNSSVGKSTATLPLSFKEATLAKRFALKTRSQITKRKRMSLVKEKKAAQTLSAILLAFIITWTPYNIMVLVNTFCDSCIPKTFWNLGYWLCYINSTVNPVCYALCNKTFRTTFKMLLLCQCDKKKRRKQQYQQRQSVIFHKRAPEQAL

`CN(CCN1CCC(OC(=O)Nc2ccccc2-c2ccccc2)CC1)C(=O)c1cccc(C(=O)NCCNCc2ccc(O)cc2)c1` [compound of formula I, biphenyl-2-ylcarbamic acid 1-[2-({3-[2-(4-hydroxybenzylamino)ethylcarbamoyl]benzoyl}methylamino)ethyl]piperidin-4-yl ester] showed a Ki [1] of under 10 nM and a Ki (hM3 receptor (CHO cells)) of under 10 nM.
